Assay results: US20040121965A1, “Method of treating resistant tumors” (Wyeth Holdings Corporation, priority 2002, published 2004)
Where two headings read alike, the source gives them in different places.

Legend:
[1] = system: KB-8-5 (MDR1+)
[2] = system: KB-V1 (MDR1++)
[3] = system: KB-8-5 (MDR1+); test: Cell survival assay (SRB), KB-8-5 (MDR1+); settings: for IC50: Homo sapiens; for RR, relative resistance: IC50 KB-8-5 / IC50 KB-3-1; for resistance of KB-8-5 cells: KB-8-5 (KB-85) vs KB-3-1, in vitro
[4] = system: KB-3-1; test: Cell survival assay (SRB), KB-3-1; assay type: cell-based, human
In short: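 Growth inhibition (IC50) is derived from SRB-measured protein content after a 3-day, duplicate exposure to serially diluted compound.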

[5] = system: KB-V1 (MDR1++); test: Cell survival assay (SRB), KB-V1 (MDR1++); settings: for IC50: Homo sapiens; for RR, relative resistance: IC50 KB-V1 / IC50 KB-3-1
[6] = system: HL60; test: Cell survival assay (MTS), HL60; assay type: cell-based; settings: Homo sapiens, HL-60; HL60 parental; Table 5; read-out: HL60 IC50, nM (N)
[7] = system: S1-M1-3.2 (MXR); test: Cell survival assay, S1-M1-3.2 (MXR); assay type: cell-based, human; settings: for IC50: Homo sapiens, S1-M1-3.2, MXR over-expression, Table 5, read-out: S1-M1-3.2 (MXR) IC50, nM (N); for RR, relative resistance: IC50 S1-M1-3.2 / IC50 S1
Text: (§1) Cells lines with previously known mechanisms of resistance. […] Res. 8: 207-218,1996); KB-3-1 (parental derived from an epidermoid carcinoma), KB-8.5, KB-V1 (Akiyama S-I, Fojo A, Hanover J A, Pastan I, Gottesman M M. Isolation and genetic characterization of human KB cell lines resistant to multiple drugs. Somatic Cell Mol. Gen., 11: 117-126,1985; Shen D-W, Cardarelli C, Hwang J, Cornwell M, Richert N, Ishii S, Pastan I, Gottesman MM. […] J. Biol. Chem., 261: 7762-7770, 1986); and HL-60 (parental derived from human leukemia) and HL60/AR (McGrath T., Center M. S. Adriamycin resistance in HL60 cells in the absence of detectable P-glycoprotein. Biochem. Res. Commun., 145:1171-1176,1987); A549 and A549.EpoB40 (He L., Yang C.-P.H., Horwitz S. B. Mutations in p-tubulin map to domains involved in regulation of microtubule stability in epothilone-resistant cell lines. Molecular Cancer Therapeutics. 1: 3-10, 2001). HCT-15 human colon carcinoma and DLD-1 human colon carcinoma are obtained from American Tissue Culture Collection. The MX-1W carcinoma is a Wyeth variant orginally obtained as MX-1 breast carcinoma from the National Cancer Institute. Cell lines selected for resistance to Representative Example 129. KB-3-1 cells are selected for resistance to Example 129 by chronically exposing cells to increasing concentrations of Example 129.
(§2) 2.2. Cell Survival Assay: Standard Pharmacological Test Procedure. The concentration of candidate inhibitor required to inhibit 50% of cell growth (IC50) is done according to previously reported methods. […] Compounds are serially diluted into media as 2× stocks and 100 μl added to cells in duplicate. Compounds are incubated with cells for 3 days. At the end of the incubation period the sulforhodamine B (SRB) assay, which measures protein content as an assessment of cell survival, is performed as described previously (Skehan P, Storeng R, Scudiero D, Monks A, McMahon J, Vistica D, Warren J T, Bokesch H, Kenney S, Boyd MR. New calorimetric cytotoxicity assay for anticancer-drug screening. J Natl Cancer Inst 1990 Jul 4;82(13):1107-12) with some modification as follows. For KB-3-1 cells with 20% FCS, media is gently decanted and replaced with 200 μl of serum-free media mixed with cold 50% TCA for a final concentration of 10% TCA. The plates are incubated for 1 hr at 4° C., followed by washing 5 times in cold distilled water, then air dried overnight. The fixed cells are stained for 10 min with 80 μl of 0.04% SRB solution prepared in 1% glacial acetic acid. Stain is discarded and plates washed 5 times in 1% glacial acetic acid, then air-dried until completely dry. Stained cell product is dissolved in 150 μl of 10 mM Trizma Base and placed on a shaker for 20 minutes until fully dissolved. Absorbance is read on a Victor V multi-label plate reader (Perkin Elmer, Gaithersburg, Md.).
(§3) J. Cell Science,113: 2011-2021, 2000). It was unknown whether the hemiasterlin family of peptides interact with these drug pumps.

[8] = system: HL60/AR (MRP1); test: Cell survival assay, HL60/AR (MRP1); settings: for IC50: Homo sapiens, HL-60/AR, read-out: HL60/AR (MRP1) IC50, nM (N); for RR, relative resistance: IC50 HL60/AR / IC50 HL60
Text: as §1, §2, §3

[9] = system: S1; test: Cell survival assay (SRB), S1; assay type: cell-based; settings: Homo sapiens; S1 parental; Table 5; read-out: S1 IC50, nM (N)
Text: as §1, §2

[10] = system: KB-HTI-4.0; test: Cell survival assay, KB-3-1 line made resistant to Example 129 (KB-HTI-4.0); assay type: cell-based, human; settings: for IC50: KB-3-1 line made resistant to Example 129, Table 8, read-out: KB-HTI-4.0 IC50
Text: as §1, §2
Cells are selected for resistance to Example 129 to understand the frequency and mechanistic basis of resistance.

[11] = system: A549.EpoB40; assay type: cell-based; settings: vs A549; below 1 = sensitive
Text: as §1
as §2, with “Stained cell product is dissolved in 150 μl of 10 mM Trizma Base and placed on a shaker for 20 minutes until fully dissolved.” left out

[12] = system: MX-1W tumor; test: Growth of tumors in nude mice, MX-1W xenograft; assay type: in vivo; settings: staged MX-1W xenograft; at MTD; days 11-15
Text: 2.4. Growth of Tumors in Nude Mice.

[13] = system: KB-PTX-15+099; test: Cell survival assay, KB-PTX-15+099 (paclitaxel-resistant, non-MDR); assay type: cell-based, human
[14] = system: Human Melanoma Carcinoma Lox; settings: staged LOX xenograft; at MTD ('<': MTD not achieved); days 11-15
[15] = system: tumor cell lines; test: cells; assay type: cell-based; settings: HL60/AR (MRP1) or S1-M1-3.2 (MXR)
Text: as §1, §2

[16] = KB-3-1 cells (paclitaxel-sensitive parent), read-out: In vitro IC50 (nM) KB-3-1
[17] = MDR1, read-out: KB-8-5 (MDR1+) IC50, nM (N)
[18] = Homo sapiens, KB-3-1 parental, Table 3, read-out: KB-3-1 IC50, nM (N)
[19] = Homo sapiens, KB-3-1 parental, Table 8, read-out: KB-3-1 IC50
[20] = read-out: KB-V1 (MDR1++) IC50, nM (N)

Compound | IC50 [1] [µM] | IC50 [2] [µM] | Ratio KB85/KB [3] | IC50 [4, 16] [nM] | Ratio KBV1/KB [5] | IC50 [6] [nM] | RR, relative resistance ([3]; Table 3) | IC50 [7] [nM] | RR, relative resistance [7] | IC50 [8] [nM] | RR, relative resistance [8] | IC50 [9] [nM] | RR, relative resistance ([5]; Table 3) | IC50 ([10]; Homo sapiens) [µM] | (RR) relative resistance vs. parental cells ([10]; KB-HTI-4.0 vs KB-3-1) | further results
CN[C@@H](C(=O)N[C@H](C(=O)N(C)[C@H](/C=C(\C)C(=O)O)C(C)C)C(C)(C)C)C(C)(C)c1ccc(OC(C)C)cc1 [Example 69, 0-isopropyl-N,β,β-trimethyl-D-tyrosyl-N^1-[(1S,2E)-3-carboxy-1-isopropylbut-2-enyl]-N^1,3-dimethyl-L-valinamide] | 0.151 | 2.34 | 2.8 | 55 | 42.6 |  |  |  |  |  |  |  |  |  |  | 
CCN(C(=O)[C@@H](NC(=O)[C@@H](NC)C(C)(C)c1ccccc1)C(C)C)[C@H](/C=C(\C)C(=O)O)C(C)C.O=C(O)C(F)(F)F [Example 95, N,β,β-trimethyl-L-phenylananyl-N^1-[(1S,2E)-3-carboxy-1-isopropylbut-2-enyl]-N^1-ethyl-L-valinamide Trifluoroacetic Acid] | 0.082 | 2.55 | 2.1 | 38.6 | 66.0 |  |  |  |  |  |  |  |  |  |  | 
CN[C@H](C(=O)N[C@H](C(=O)N(C)[C@H](/C=C(\C)C(=O)O)C(C)C)C(C)(C)C)C(C)(C)c1ccccc1 [Example 134, (E,4S)-4-[((2S)-3,3-dimethyl-2-{[(2S)-3-methyl-2-(methylamino)-3-phenylbutanoyl]amino}butanoyl)(methyl)amino]-2,5-dimethyl-2-hexenoic Acid] |  |  | 1.4 |  | 31.3 |  |  |  |  |  |  |  |  |  |  | IC50 ([1]; human): 0.039 µM; IC50 ([2]; human): 0.879 µM; IC50 ([4]; read-out: In vitro IC50 (nM) KB-3-1): 28 nM
CN[C@H](C(=O)N[C@@H](CCC(=O)O)C(=O)N(C)[C@H](/C=C(\C)C(=O)O)C(C)C)C(C)(C)c1ccccc1 [Example 139, N,β,β-trimethyl-L-phenylalanyl-N^1-[(1S,2E)-3-carboxy-1-isopropyl-2-butenyl]-N^1-methyl-L-alpha-glutamine] | 0.975 | ≥ 3 | 1.9 | 503 | 6.0 |  |  |  |  |  |  |  |  |  |  | 
COc1cccc2c1C(=O)c1c(O)c3c(c(O)c1C2=O)C[C@@](O)(C(=O)CO)C[C@@H]3O[C@H]1C[C@H](N)[C@H](O)[C@H](C)O1 [adriamycin] |  |  |  |  |  | 24.2 ± 6.8 | 15 | 11500 ± 367 | 52 | > 3000 | >124 | 221 ± 113 | 265 | 0.552 ± 0.111 | (16) | IC50 [3, 17]: 658 ± 483 nM; resistance of KB-8-5 cells [3]: 15 fold; IC50 [4, 18]: 43.3 ± 32 nM; IC50 [4, 19]: 33.9 ± 21.2 nM; IC50 [5, 20]: 11500 ± 9670 nM
O=C1c2c(O)ccc(O)c2C(=O)c2c(NCCNCCO)ccc(NCCNCCO)c21 [mitoxantrone] |  |  |  |  |  | 5.9 | 1.9 | 16600 | 535 | 190 | 32.4 | 31 | >291 | 0.43 ± 0.159 | (43) | IC50 [3, 17]: 19.1 nM; IC50 [4, 18]: 10.3 ± 6.9 nM; IC50 [4, 19]: 10 ± 6.5 nM; IC50 [5, 20]: > 3000 nM
CC[C@]1(O)C[C@@H]2CN(CCc3c([nH]c4ccccc34)[C@@](C(=O)OC)(c3cc4c(cc3OC)N(C)[C@H]3[C@@](O)(C(=O)OC)[C@H](OC(C)=O)[C@]5(CC)C=CCN6CC[C@]43[C@@H]65)C2)C1 [vinblastine] |  |  |  |  |  | 0.5 | 37 | 12.7 | 1.9 | 2 | 3.7 | 6.5 | 1848 | 0.00619 ± 0.00126 |  | resistance of A549.EpoB40 cells [11]: 0.2 fold; Activity in nude mice animal model (% T/C @ MTD on days 11-15) MX-1W [12]: 64%; IC50 ([3]; MDR1, read-out: KB-8-5 (MDR1+) IC50, nM (N), KB-8-5, moderate MDR1 expression, Table 3): 29.2 ± 22 nM; resistance of KB-8-5 cells [3]: 37 fold; IC50 ([4]; Homo sapiens, KB 3-1, 72 h, amount of drug needed to kill 50% of cells after three days continuous exposure, Table 11, read-out: IC50 in parental cell line KB-3-1): 0.8 nM; IC50 ([4]; Homo sapiens, KB 3-1, KB-3-1, Table 6, read-out: KB-3-1 IC50): 0.703 ± 0.097 nM; IC50 ([4]; Homo sapiens, KB 3-1, KB-3-1 parental, Table 3, read-out: KB-3-1 IC50, nM (N)): 0.79 ± 0.5 nM; IC50 ([4]; Homo sapiens, KB 3-1, KB-3-1 parental, Table 8, read-out: KB-3-1 IC50): 0.73 ± 0.03 nM; IC50 ([13]; Homo sapiens, KB-PTX-15+099, Table 6, read-out: KB-PTX-15+099 IC50): 0.000192 ± 2.2e-05 µM; Average Relative Resistance (RR) ([13]; IC50 KB-PTX-15+099 / IC50 KB-3-1, less than 1 = increased sensitivity): (0.27); increased sensitivity of KB-PTX-15+099 cells ([13]; vs KB-3-1): 3.7 fold; IC50 ([5]; read-out: KB-V1 (MDR1++) IC50, nM (N), KB-V1, high MDR1 expression, Table 3): 1460 ± 1020 nM; Activity in nude mice animal model (% T/C @ MTD on days 11-15) LOX [14]: 9%; (RR) relative resistance vs. parental cells [10]: (9); resistance of KB-3-1-derived cell lines selected with Example 129 ([10]; vs KB-3-1): 9 fold; resistance detected in cells over-expressing MRP1 or MXR [15]: no resistance
epothilone B |  |  |  |  |  |  |  |  |  |  |  |  |  |  | (4) | resistance of A549.EpoB40 cells [11]: 107 fold; IC50 ([4]; KB-3-1 parental, Table 8, read-out: KB-3-1 IC50): 0.63 ± 0.08 nM; IC50 [10]: 0.00237 ± 0.0022 µM
